From patent US11571454B2, “Anticancer peptides that synergistically enhance chemotherapeutic potency” (The Penn State Research Foundation, priority 2017, dated 2023)
Marks after values point to notes of the source that are not given here.

Experiments:
[1] = Liposome disruption (OD600), normal membrane model
Method: (§1) Liposomes were prepared by extrusion techniques according to previous methods. Briefly, all liposomes were prepared in 2×concentration (5 mM). Healthy and cancer liposomal mimicking membranes were prepared with 72:23:[…] phosphatidylcholine (POPC):phosphatidylethanolamine (DOPE):phosphatidylserine (POPS) lipids, respectively. The lipids dissolved in chloroform were mixed in proper molar proportions before being evaporated under a stream of argon. The lipid film was then dried completely by lyophilization overnight. […] The extruded liposomes were then dialyzed in 3500 MWCO dialysis cassettes against water. Parallel optical density experiments were conducted measuring the absorbance at 600 nm (OD600) to track the kinetics and specificity of membrane disruption. Measurements were taken every 30 seconds for the first 10 min., followed by measurements every minute until 15 min.

P. aeruginosa = conditions: 24 hours, Gram Negative
[2] = test system: non-cancerous cell lines HUVEC and NL20; experiment: MTT cytotoxicity, non-cancerous control cell lines; assay type: cell-based, human
Method: (§2) All cells were cultured using standard culture conditions at 37° C., 5% CO2, and 95% humidity. A549 (CCL-185), OVCAR-3 (HTB-161), T24 (HTB-4), and NCI/ADR-RES were cultured in RPMI-1640 supplemented with 10% v/v fetal bovine serum (FBS), 2 mM L-glutamine (L-Gln), 10,000 units penicillin/mL, 10 mg/mL streptomycin, and 25 μg/mL amphotericin B. HUVEC (PCS-100-010) cells were cultured in Vascular Cell Basal Media (PCS-100-030) supplemented with an Endothelial Cell Growth Kit-VEGF (PCS-100-041) and 10 μg/mL gentamycin in culture flasks coated with 0.1% gelatin by incubating at 37° C. for 15 min. NL20 (CRL-2503) cells were cultured in Ham's F12 supplemented with 1.5 g/L sodium bicarbonate, 2.7 g/L glucose, 2.0 mM L-glutamine, 0.1 mM nonessential amino acids, 0.005 mg/ml insulin, 10 ng/ml epidermal growth factor, 0.001 mg/ml transferrin, 500 ng/ml hydrocortisone and 4% fetal bovine serum, as advised by American Type Culture Collection (ATCC).
(§3) Viability was calculated by comparing to an untreated control.
(§4) All experiments were performed with n>6.

OVCAR-3 cells [3] = experiment: Annexin V-PI flow cytometry apoptosis assay; assay type: cell-based, human; conditions: IC50 of MAD1 (14 μM)
Method: OVCAR-3 cells were first seeded at 2×10^5 cells/well in 12 well plates. The cells were then allowed to adhere overnight. […] Wells were left in 5% serum media for negative and compensation controls. Cells were then trypsinized, washed in cold PBS, and centrifuged at 3,000 rpm at 15° C. for 5 min. After the supernatant was aspirated, the cells were resuspended in 100 μL of Annexin V Binding Buffer. In the dark, 5 μL of FITC Annexin V and 10 μL of Propidium Iodine solution were added to the cells, with compensation controls of a negative control with no staining, a FITC Annexin V only control, and a PI only control. The cells were then vortexed gently to combine and allowed to incubate for 15 min. at room temperature. 400 μL of Annexin V Binding Buffer was then added to each tube and stored on ice prior to analyzing by flow cytometry.
Flow cytometry was conducted on a LSRFortessa Flow Cytometer (BD Biosciences, Franklin Lakes, N.J.) using 488 nm and 532 nm lasers for FITC and PE-Texas Red signals to detect Annexin V and PI, respectively. Compensation was completed for 10,000 cells, and experiments were conducted over 20,000 cells.

[4] = Liposome disruption (OD600), cancer membrane model; conditions: OD600 and visual flocculates
Method: as §1

MR S. aureus = conditions: 24 hours, Gram Positive
B. subtilis (168) = conditions: 24 hours, Gram Positive
E. coli = conditions: 24 hours, Gram Negative
[5] = test system: human umbilical vein endothelial cells (HUVEC); conditions: read-out: Healthy (IC50, μM) HUVEC; 48 hours treatment, MTT
MS S. aureus = conditions: 24 hours, Gram Positive
[6] = test system: A549 (lung carcinoma) cells; experiment: MTT cytotoxicity assay, A549; assay type: cell-based, human
Method: as §2, §3, §4
Cell viability experiments were completed n>6 in two independent experiments and analyzed using GraphPad Prism 8 to fit curves and calculate IC50 values using inhibitor vs. normalized response non-linear regression model. IC50 values are reported as mean values±standard deviation. […] Pore size frequency distribution was completed by ImageJ FIJI on 4 independent cells and n=30 pores from SEM images. UV-Vis OD600 and CD spectra are means of 5 and 3 replicates, respectively and reported as mean±standard deviation. Individual UV-Vis and CD spectra, as well as fluorescent confocal and TEM micrographs, shown are representative plots from three individual experiments. CD data is with a variance in ellipticity of 0.2 millidegrees at each wavelength. Relative fluorescence data calculated from fluorescent confocal images represents the average of 10 independent measurements±standard deviation. For spheroid volume analysis, a Kruskal-Wallis test and Dunn's multiple comparisons test was performed using GraphPad Prism 8.

OVCAR-3 cells [7] = conditions: read-out: IC50, nuclei-counting assay; OVCAR-3, Hoechst nuclei counting
OVCAR-3 cells [8] = experiment: TMRE-staining flow cytometry (mitochondrial transmembrane potential); assay type: cell-based, human; conditions: 48 hour incubation, varying concentrations
Method: (5 μM). Cells were incubated for 30 min. with 200 nM TMRE, washed twice with PBS, and analyzed for fluorescence by flow cytometry on a BD […] (BD Biosciences, Franklin Lakes, N.J.).

[9] = test system: human lung epithelium (NL20); conditions: read-out: Healthy (IC50, μM) NL20; 48 hours treatment, MTT
M. tuberculosis = conditions: 24 hours, Mycobacteria
[10] = test system: T24 (urinary bladder transitional cell carcinoma) cells; experiment: MTT cytotoxicity assay, T24

In the case of H-KRWHWWRRHWVVW-NH2 [MAD1], the “disruption/interaction with normal (healthy) membrane liposomes” value [1] is reported as “did not lyse”, the “MIC (μM) P. aeruginosa” value (P. aeruginosa) is reported as 50^a μM and the “toxicity towards non-cancerous control cell lines” value [2] is reported as “well tolerated”. For the same substance, the “cell necrosis (% of population)” value (OVCAR-3 cells [3]; 2 hours) was 16%, the “late apoptotic phenotype (% of cells)” value (OVCAR-3 cells [3]; 2 hours) was 65% and the “early apoptotic stage (% of cells)” value (OVCAR-3 cells [3]; 24 hours) was 19%. For the same substance, the “late apoptotic stage (% of cells)” value (OVCAR-3 cells [3]; 24 hours) was 77%, the “disruption/lysis of cancer membrane liposomes” value [4] was “significant membrane destabilization and subsequent lysis” and the “MIC (μM) MR S. aureus” value (MR S. aureus) was >80^a μM. For the same substance, the “MIC (μM) B. subtilis (168)” value (B. subtilis (168)) was 0.2 µM, the “MIC (μM) E. coli” value (E. coli) was 25 µM and the IC50 [5] was greater than 100 µM. The “MIC (μM) MS S. aureus” value (MS S. aureus) was >80^a μM, the IC50 ([6]; 48 hours treatment, MTT, read-out: Cancerous (IC50, μM) A549) was 36.2 µM and the “Therapeutic Index A549” value ([6]; IC50-HUVEC/IC50-A549) was 2.8. The “cytotoxic activity against A549” value ([6]; result in words) was “moderate activity”, the IC50 (OVCAR-3 cells [7]) was 3.3 µM and the “mitochondrial integrity (TMRE fluorescence)” value (OVCAR-3 cells [8]) was “generally unchanged”. The IC50 [9] was 76.9 µM, the “MIC (μM) M. tuberculosis” value (M. tuberculosis) was 2.5 µM and the IC50 ([10]; read-out: Cancerous (IC50, μM) T24, 48 hours treatment, MTT) was greater than 100 µM. The “cytotoxic activity towards T24” value ([10]; result in words) was “inactive”.
